How the values were obtained:
2'-deoxyguanosine = test: Binding and cyclization reaction with 2'-deoxyguanosine (LC-mass)
Protocol: As a comparison, a reaction involving 2'-deoxyguanosine and complex 1 was carried out. Complex 1 bound to the C-2 amino on a guanine to form a Pt-N covalent bond. […] As a result, cleavage at a guanine site required assistance from an external base (e.g., piperidine). In another experiment, an excess of complex 1 was added to a 2'-deoxyguanosine solution, followed by piperidine treatment. An intermediate was detected, at a yield of 42%, with a signal at 1063.9 for (M + H^+) as analyzed by an electron spray ionization detector in LC-mass chromatogram. The intermediate was able to give a cyclization product, at a yield of 80%, with a signal at 792.0 for (M + H^+) upon 350-nm UV light irradiation, but not in the dark. The scheme below depicts the just-described reaction: [drawing 5]

[1] = test system: supercoiled circular φX174 RFI DNA; test: Single-strand DNA cleavage of supercoiled circular DNA under 350 nm UV irradiation (agarose gel); type: biochemical; conditions: in the dark
[2] = test system: double helical oligonucleotide d(ATAT)2; test: DNA binding and cleaving mechanism with oligonucleotide (LC-mass); conditions: 1:1, phosphate buffer pH 6.0, in the dark for 2.0 h
Protocol: A double helical oligonucleotide d(ATAT)2 was prepared and added to a phosphate buffer solution (pH = 6.0) containing complex 1(1:1). The solution was kept in the dark for 2.0 h. An intermediate was detected, at a yield of 57%, with a signal at 650.1 for (M + H^+) as analyzed by an electron spray ionization detector in LC-mass chromatogram. Then, the solution was irradiated with 350 nm-UV light for 2.0 h at room temperature. A product was detected with a signal at 456.1 for (M + H^+). […] Then an intramolecular cyclization took place to remove the DMSO and to form a covalent bond between the N-7 nitrogen atom and the platinum in complex 1, resulting in the oligonucleotide cleavage.

[3] = test system: supercoiled circular φX174 RFI DNA; test: Single-strand DNA cleavage of supercoiled circular DNA under 350 nm UV irradiation (agarose gel); type: biochemical; conditions: for (% form I) / (% form II) / (% form II)/ (% form I) / DNA forms observed on gel: 350 nm UV 2.0 h
Protocol: Cleavage at various pH's: A reaction mixture (10 µL) containing supercoiled circular φX174 RFI DNA stock solution (50 µM/base pair), complex 1 (5.0 µM), and a phosphate buffer (0.10 M, pH 5.0, 6.0, 7.0, and 8.0) in a Pyrex vial was preincubated at 37°C. The reaction mixture was then irradiated with 350 nm UV light (32-W) for 2.0 h at room temperature. After adding a gel-loading buffer (025% bomophenol blue, 0.25% xylene cyanol, and 30% glycerol), the reaction mixture was loaded on a 1% agarose gel, followed by ethidium bromide staining. The gel was visualized by a 312-nm UV transilluminator and photographed by a FB-PDC-34 camera. Supercoiled circular DNA and cleaved DNA were clearly seen from the gel.
Cleavage at various complex concentrations: A reaction mixtures (10 µL) containing supercoiled circular φX174 RFI DNA stock solution (50 µM/base pair), complex 1 (0.050―100 µM), and a phosphate buffer (0.10 M, pH 6.0) in a Pyrex vial was preincubated at 37°C. The mixture was irradiated with 350 nm UV light (32-W) for 2.0 h at room temperature. After adding a gel-loading buffer (0.25% bromophenol blue, 0.25% xylene cyanol, and 30% glycerol), the reaction mixture was loaded on a 1% agarose gel, followed by ethidium bromide staining. The gel was visualized by a 312-nm UV transilluminator and photographed by a FB-PDC-34 camera. Supercoiled circular DNA (form I) and cleaved DNA (form II) were clearly seen from the gel.

[4] = test system: 160-bp dsDNA fragment was prepared from the 501―660 fragment of pBR322 DNA; test: Site-specific DNA cleavage of 5'-32P-labeled 160-bp dsDNA fragment (polyacrylamide/urea gel, autoradiogram); type: biochemical; conditions: complex 20―100 µM, 350-nm UV 2.0 h
Protocol: A 160-bp dsDNA fragment was prepared from the 501―660 fragment of pBR322 DNA. It was amplified by the polymerase chain reaction (Bailly & Waring (1995) J. Am. Chem. Soc. 117:7311; Bailly et al. (1993) J. Am Chem. Soc. 115: 3784; and Sayers & Waring (1993) Biochemistry 32: 9094), and labeled at the 5'-terminus with γ-[^32P]-ATP and T4 polynucleotide kinase. A reaction mixture containing a 5'-terminus labeled ^32P-DNA solution, a phosphate buffer (0-10 M, pH 6.0), and complex 1 (20―100 µM) in a Pyrex vial was preincubated at 37°C for 30 min. The reaction mixture was irradiated with 350-nm UV light under aerobic conditions for 2.0 h at room temperature. The bound metal complexes on DNA fragments were removed by using 0.30 N NaCN (pH = 11) at 37°C for 8.0 h (Schwartz et al. (1990) J. Am. Chem. Soc. 112: 3673; and Zou et al. (1994) Biochemistry 33: 5404). The reaction mixture was then quenched with either a gel-loading buffer or 95% ethanol. […] The samples and the Maxam-Gilbert markers were analyzed using 10% polyacrylamide/8.0 M urea gel. […] Quantitation of relative intensities of DNA fragments was performed using a Microtek scanner and NIH 1.60 image program.
The detected DNA fragments were compared with Maxam-Gilbert markers on an autoradiogram, and quantitated by a computer-assisted program.

What does the source list for `C[S+](C)(=O)[Pt-2]1([Cl])[O][n+]2ccccc2[S]1` (centres unmarked) [complex 1, PtCl(DMSO)[η^2-C5H4SN(O)]]?
yield of intermediate (complex bound to guanine) (2'-deoxyguanosine; excess of complex, followed by piperidine treatment): 42%; yield of cyclization product from intermediate (2'-deoxyguanosine; upon 350-nm UV light irradiation): 80%; (% form I) ([1]; complex 500 µM, pH 6.0): 93%; (% form II) ([1]; complex 500 µM, pH 6.0): 7.0%; (% form II)/ (% form I) ([1]; complex 500 µM, pH 6.0): 0.070; cleavage of single-strand DNA [1]: did not occur; yield of intermediate (complex bound to adenine) [2]: 57%; (% form I) ([3]; complex 1.0 µM, pH 6.0): 37%; (% form II) ([3]; complex 1.0 µM, pH 6.0): 63%; (% form II)/ (% form I) ([3]; complex 1.0 µM, pH 6.0): 1.7; (% form I) ([3]; complex 2.5 µM, pH 6.0): 20%; (% form II) ([3]; complex 2.5 µM, pH 6.0): 80%; (% form II)/ (% form I) ([3]; complex 2.5 µM, pH 6.0): 4.0; (% form I) ([3]; complex 5.0 µM, pH 6.0): 7.1%; (% form II) ([3]; complex 5.0 µM, pH 6.0): 93%; (% form II)/ (% form I) ([3]; complex 5.0 µM, pH 6.0): 13; DNA forms observed on gel ([3]; complex 5.0 µM, pH 5.0): only cleaved DNA was observed; DNA forms observed on gel ([3]; complex 5.0 µM, pH 6.0): only cleaved DNA was observed; DNA forms observed on gel ([3]; complex 5.0 µM, pH 7.0): only cleaved DNA was observed; DNA forms observed on gel ([3]; complex 5.0 µM, pH 8.0): both supercoiled circular DNA and cleaved DNA were observed; DNA cleaving activity ([3]; concentration as low as 1.0 µM): very strong DNA cleaving activity; site of DNA cleavage ([4]; with hot piperidine treatment): cleaved DNA at purine residues; site of DNA cleavage ([4]; without piperidine treatment): at adenine residues

From EP1394169A1, “Organometallic complex” (Hwu, Jih-Ru, priority 2002, dated 2004)
